Series [1] is described as follows: Microsomal stability assay, mouse S9 liver microsomes. The class given is in vitro ADME. Conditions: for CLmic S9mouse: microsomal clearance, calculated from t1/2; for metabolic stability t1/2 MLM: mouse S9 liver fractions. The method, then:
(§1) S9 liver microsomes (mouse and human, Thermo Fisher) were thawed slowly on ice. 20 mg/ml of microsomes, 2 μl of a 100 μM solution of every compound and 183 μl of 100 mM phosphate buffer were incubated 5 min at 37° C. in a water bath. Reactions were initiated using 10 μl of 20 mM NADPH (Roth). Samples were incubated in three replicates at 37° C. under gentle agitation at 150 rpm.
(§2) At 0, 5, 15, 30, and 60 min, reactions were terminated by the addition of 180 μl acetonitrile using a Mantis Formulatrix® dispenser. Samples were vortexed for 5 min using an Eppendorf MixMate® vortex mixer and centrifuged at 2270 ref for 20 min at 4° C. The supernatants were transferred to 96-well Greiner V-bottom plates, sealed and analysed according to the section HPLC-MS/MS analysis. Peak areas of the respective time point of the compounds were normalized to the peak area at time point 0 min. Then half-life was calculated using linear regression (Microsoft Excel®). Clint [μl/min/mg protein] was calculated using the following formula: […]
(§3) Cell samples as well as plasma stability, plasma protein binding and metabolic stability samples were analysed using an Agilent 1290 Infinity II coupled to an AB Sciex 6500plus mass spec-trometer. LC conditions were as follows: column: Agilent Zorbax Eclipse Plus C18, 50×2.1 mm, 1.8 m; temperature: 30° C.; injection volume: 5 l per sample; flow rate: 700 l/min. Solvents: A: water+0.1% formic acid; solvent B: 95% acetonitrile/5% H2O+0.1% formic acid. Gradient for 2, 36 and 37: 99% A from 0 min until 1 min; 99-0% A from 1.0 until 2.2 min, 0% A until 3.2 min. Gradient for naproxene: 99% A from 0 min until 1 min; 99-0% A from 1.0 until 5.5 min, 0% A until 6.0 min. Gradient for […] and […]: 99% A from 0 min until 1.0 min, 99-0% A from 1.0 until 3.5 min, 0% A until 3.7 min. Mass transitions for controls and compounds are depicted in table 5.

In another series the test system is P. aeruginosa PA14. The series can be described thus: Antibiotic susceptibility (MIC assay, broth microdilution). The class given is cell-based, Pseudomonas aeruginosa PA14. The method, then:
Bacterial strains were streaked on LB-agar plates (1% agar) from glycerol stocks and incubated at 37° C. overnight. Colonies were picked from plate and dispersed in fresh MiGler-Hinton broth II (MHB II) to yield an OD600 of 0.08-0.13. This dispersion was diluted 1:100 in fresh MHB II, which was then used for the assay to achieve a final inoculum of 5×10^5 CFU/mL. 50 μL inoculum was mixed with 50 μL of the serial dilution in the corresponding well of the 96-well plate.
The different matrices were prepared under sterile conditions: (i) 5 mL human plasma and 1 mL sterile filtrate from an P. aeruginosa PA14 overnight culture in LB were mixed with 4 mL PBS; (ii) 1 mL sterile filtrate from an P. aeruginosa PA14 overnight culture was diluted in 9 mL PBS; (iii) PBS only and (iv) 5 mL human plasma and 1 mL LB were mixed with 4 mL PBS. 6 L of each compound dilution series was diluted in 115 L matrix (˜-1:20 dilution) in a 96-well format at time point T=−3 h or T=−10 min.
The plates prepared at T=−3 h were sealed with gas-permeable foil and incubated at 37° C. in a humid incubator. The other plates were kept at room temperature. At T=0 h, 50 µL of each well was mixed with 50 μL incoculum (as described above) in double-concentrated MHBII in a sterile 96-well plate.
The plates were sealed with gas-permeable foil and incubated at 37° C. for 18-20 h in a humid incubator. Growth inhibition was assessed by visual inspection and given MIC values are the lowest concentration of antibiotic at which there was no visible growth.
Background: In broth dilution the organism is exposed to a series of concentrations in liquid medium.

Series [2] in a line: Microsomal stability assay, human S9 liver microsomes. The series is classed as in vitro ADME. As to conditions: for metabolic stability t1/2 HLM: human S9 liver fractions; for CLmic S9human: microsomal clearance, calculated from t1/2. As to the method: as §1, §2, §3
A short description of series [3]: Stability of conjugates in human blood plasma spiked with LB. The series is classed as in vitro ADME. Conditions: 50% human blood plasma spiked with 10% LB, within three hours. As to the method: A 1 mM solution of the studied compound was prepared in PBS (150 mM NaCl, 2.6 mM KCl, 1.4 mM KH2PO4, 10 mM Na2HPO4, pH 7.4) with 20% DMSO. 50 μL of this solution was diluted in 950 μL matrix or human plasma (spiked with 10% LB) on ice. After brief vortex, 100 μL were immediately treated with 100 μL ice-cold MeCN (spiked with […] diphenhydramine as internal standard). The rest of the solution was incubated at 37° C. and 500 rpm in an eppendorf thermomixer. At various time points (30, 60, 120, 180 min), 100 L sample were taken and treated as described above. […] The AUC of the parent drug and its cleavage products and the internal standard was quantified using Compass QuantAnalysis quantification software. The relative AUC was calculated by AUC (compound)/AUC(ISTD). Procaine was used as a positive control as it readily degrades in human plasma.

Series [4] in a line: Plasma protein binding assay (RED), human plasma. The series is classed as in vitro ADME. As to conditions: human blood plasma. As to the method:
Plasma protein binding was assessed using the rapid equilibrium device (RED) system from ThermoFisher. […] Dialysis buffer and plasma samples were added to the respective chambers according the manufacturer's protocol. The RED plate was sealed with a tape and incubated at 37° C. for 2 hours at 800 rpm on an Eppendorf MixMate® vortex-mixer. Then samples were withdrawn from the respective chambers. To 25 μl of each dialysis sample, 25 μl of plasma and to 25 μl of plasma sample, 25 l of dialysis buffer was added. […] Samples were incubated for 30 min on ice. Then samples were centrifuged at 4° C. at 2270 ref for 10 min. Supernatants were transferred to Greiner V-bottom 96-well plates and sealed with a tape. Then samples were subjected to HPLC-MS/MS analysis as described in the section ‘HPLC-MS/MS analysis’. The percentage of bound compound was calculated as follows: […]
Cell samples as well as plasma stability, plasma protein binding and metabolic stability samples were analysed using an Agilent 1290 Infinity II coupled to an AB Sciex 6500plus mass spec-trometer. LC conditions were as follows: column: Agilent Zorbax Eclipse Plus C18, 50×2.1 mm, 1.8 m; temperature: 30° C.; injection volume: 5 l per sample; flow rate: 700 l/min. Solvents: A: water+0.1% formic acid; solvent B: 95% acetonitrile/5% H2O+0.1% formic acid. […]

The mark [5] stands for this setting: Matrix 1: PBS, pre-incubation 3 h.
Where [6] appears, read: Matrix 1: PBS, pre-incubation <10 min.
The mark [7] stands for this setting: Matrix 2: 50% human blood plasma + 10% P. aeruginosa culture supernatant in PBS, pre-incubation 3 h.
[8] abbreviates: Matrix 2: 50% human blood plasma + 10% P. aeruginosa culture supernatant in PBS, pre-incubation <10 min.
[9] abbreviates: Matrix 3: 10% P. aeruginosa culture supernatant in PBS, pre-incubation 3 h.
Setting [10] is: Matrix 3: 10% P. aeruginosa culture supernatant in PBS, pre-incubation <10 min.
[11] abbreviates: Matrix 4: 50% human blood plasma + 10% LB in PBS, pre-incubation 3 h.
[12] abbreviates: Matrix 4: 50% human blood plasma + 10% LB in PBS, pre-incubation <10 min.

Several values for one entry are separate records, joined by “and”; a condition that tells them apart may be missing. Identical values can stand only once.

As usually defined, the MIC is the smallest concentration in the dilution series that meets the test's criterion for growth inhibition. In the case of `CC(C)CC(NC(=O)CNC(=O)C(C)NC(=O)c1ccc(S(=O)(=O)NCC2OC(C)C(O)C(O)C2O)cc1)C(=O)NC(C)C(=O)NC1CCN(c2cc3c(cc2F)c(=O)c(C(=O)O)cn3C2CC2)C1` (stereo not shown) [Compound 37], the “CLmic S9mouse” value in series [1] is recorded as 6.4 μL/min/mg protein. Moreover, the “metabolic stability t1/2 MLM” value in series [1] amounted to 3.6 h. The minimum inhibitory concentration (MIC) in the series on P. aeruginosa PA14 (setting [5]) is above 25 µM; with P. aeruginosa PA14 (setting [6]), above 25 µM; in the series on P. aeruginosa PA14 (setting [7]), 0.1 to 0.195 µM; in the series with P. aeruginosa PA14 (setting [8]) it was 0.78 to 1.56 µM; with P. aeruginosa PA14 (setting [9]), 0.39 to 3.13 µM; with P. aeruginosa PA14 (setting [10]) it was 1.56 to 12.5 µM. Further, the MIC is 0.78 to 6.25 µM in the series with P. aeruginosa PA14 (setting [11]) and at least 25 µM with P. aeruginosa PA14 (setting [12]). Also, the “metabolic stability t1/2 HLM” value in series [2] came to 2.97 h. Moreover, the “CLmic S9human” value in series [2] is 7.8 μL/min/mg protein. In series [3], the “release of antibiotic cargo” value is recorded as “no significant release of their antibiotic cargo”. Moreover, the “plasma protein binding human” value in series [4] was 51% and 51.1 ± 13.3%.

For the compound `CC(C)C[C@H](NC(=O)CNC(=O)[C@H](C)NC(=O)c1ccc(S[C@@H]2O[C@H](CO)[C@H](O)[C@H](O)[C@H]2O)cc1)C(=O)N[C@@H](C)C(=O)N[C@H]1CCN(c2cc3c(cc2F)c(=O)c(C(=O)O)cn3C2CC2)C1` [Compound 36], the “CLmic S9mouse” value in series [1] is reported as 14 μL/min/mg protein. Besides, the “metabolic stability t1/2 MLM” value in series [1] stood at 1.67 h. Also, the MIC was above 25 µM against P. aeruginosa PA14 (setting [5]); above 25 µM in the series with P. aeruginosa PA14 (setting [6]); 0.1 µM in the series on P. aeruginosa PA14 (setting [7]); 0.195 to 0.39 µM with P. aeruginosa PA14 (setting [8]); 0.195 to 3.13 µM against P. aeruginosa PA14 (setting [9]); 0.78 to 3.13 µM against P. aeruginosa PA14 (setting [10]). Besides, the MIC in the series on P. aeruginosa PA14 (setting [11]) was 0.78 to 6.25 µM; in the series on P. aeruginosa PA14 (setting [12]), at least 25 µM. Further, the “metabolic stability t1/2 HLM” value in series [2] was 1.55 h. In addition, the “CLmic S9human” value in series [2] is reported as 15 μL/min/mg protein. Moreover, the “release of antibiotic cargo” value in series [3] is “no significant release of their antibiotic cargo”. Also, in series [4], the “plasma protein binding human” value was 97% and 97.2 ± 4.8%.

These data come from patent publication US20250295790A1, “LECTIN-TARGETING CONJUGATES” (Helmholtz-Zentrum für Infektionsforschung GmbH, priority 2021, published 2025).
